{"source": "patent US20240336608A1", "about": "“IL4I1 INHIBITORS AND METHODS OF USE” (Merck Sharp & Dohme LLC, priority 2023, published 2024)"}
{"biological_target": "T1, recombinant IL4I1 (Homo sapiens, UniProt Q96RQ9)", "T1 construct": "purchased R&D Systems 5684-AO-020", "T1 sequence (Q96RQ9 22-567)": "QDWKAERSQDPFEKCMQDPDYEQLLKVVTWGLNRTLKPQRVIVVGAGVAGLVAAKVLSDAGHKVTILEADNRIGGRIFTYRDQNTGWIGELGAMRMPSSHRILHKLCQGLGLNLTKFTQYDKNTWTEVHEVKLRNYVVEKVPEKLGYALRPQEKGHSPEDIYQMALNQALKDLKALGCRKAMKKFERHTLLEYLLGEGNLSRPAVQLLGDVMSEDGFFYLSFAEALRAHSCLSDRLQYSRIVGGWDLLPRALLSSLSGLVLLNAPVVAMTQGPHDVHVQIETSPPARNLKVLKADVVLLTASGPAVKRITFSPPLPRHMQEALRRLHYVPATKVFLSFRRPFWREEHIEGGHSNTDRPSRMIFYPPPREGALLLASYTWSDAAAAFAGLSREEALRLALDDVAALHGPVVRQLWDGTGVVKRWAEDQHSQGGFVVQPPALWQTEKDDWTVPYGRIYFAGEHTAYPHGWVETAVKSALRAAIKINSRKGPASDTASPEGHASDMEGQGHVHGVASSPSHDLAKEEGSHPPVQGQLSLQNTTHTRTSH", "assay": "IL4I1 Enzymatic Assay (Amplex Red/HRP coupled detection of H2O2, fluorescence)", "assay_type": "biochemical", "settings": "1 nM recombinant IL4I1; four-hour pre-incubation with compound; 1 mM each Phe, Tyr, Trp; ten-point titration", "experimental": "Interleukin 4 inducible protein 1 (IL4I1) is an L-amino oxidase that catalyzes the oxidation of aromatic residues (Phe, Trp and Tyr): L-amino acid+H2O+O2→2-oxo acid+NH3+H2O2. Equal molar of H2O2 and the corresponding alpha-ketoacid are produced when IL4I1 and substrate are added. In this assay, the hydrogen peroxide generated by IL4I1 is then detected through a coupled reaction with Amplex Red (10-acetyl-3,7-dihydroxyphenoxazine) and […] (HRP) to produce Resorufin product that could be detected in the form of fluorescence signals. The assessment of the inhibitory effect of small molecules (EC50) on IL4I1 is measured by the effectiveness of the compounds to inhibit the production of H202.\nUsing this assay, the potency (EC50) of each compound was determined from a ten-point (1:3 serial dilution) titration curve using the following outlined procedure. To each well of a black flat-bottom Greiner (Cat #781076) 384 well-plate, 125 nL of compound (0.5% DMSO in final assay volume of 25 μL) was dispensed, followed by the addition of 12.5 μL of 1× assay buffer (50 mM Hepes 7.0 and 0.005% Tween20 (Sigma, Cat #P8341; low peroxide grade)) containing 2 nM of recombinant IL4I1 (R&D Systems, Cat #5684-AO-020). Plates were placed in an ambient temperature humidified chamber for a four-hour pre-incubation with compound. Subsequently, each reaction was initiated by the addition of 12.5 μL 1× assay buffer containing 2 mM of each aromatic amino acids (Phe/Tyr/Trp), 0.1 mM Amplex Red and 2 U/mL of HRP. The final reaction in each well of 25 μL consists of 1 nM of IL4I1, 1 mM of each residue (Phe, Tyr and Trp), 0.05 mM Amplex Red and 1 U/mL of HRP. It should be noted that the concentrations of Amplex Red and HRP used here are in excess such that the conversion of H2O2 to Resorufin product occurs instantaneously and non-rate limiting. Reactions were allowed to proceed for 120 minutes followed by fluorescence readout on a Spectramax with the following set parameters: 544 nm excitation/590 nm emission, 570 nm cutoff (EnVision is an alternative reader). Dose-response curves were generated by plotting percent effect (% inhibition; Y-axis) vs. Log10 compound concentrations (X-axis). EC50 values were calculated using a non-linear regression, four-parameters sigmoidal dose-response model and are shown in Table 16.", "units": {"EC50": "nM"}}
{"smiles": "Cc1ccc(-n2cc(C(=O)NCc3ccc(-c4sccc4C)nn3)nn2)c(C)n1", "note": "[Example 122, 1-(2,6-dimethylpyridin-3-yl)-N-((6-(3-methylthiophen-2-yl)pyridazin-3-yl)methyl)-1H-1,2,3-triazole-4-carboxamide]", "EC50": 571}
{"smiles": "CCc1ccc(-n2cc(C(=O)NCc3nnc(-c4ccccc4)s3)nn2)c(C)n1", "note": "[Example 336, 1-(6-ethyl-2-methylpyridin-3-yl)-N-((5-phenyl-1,3,4-thiadiazol-2-yl)methyl)-1H-1,2,3-triazole-4-carboxamide]", "EC50": 9}
{"smiles": "O=C(NCc1nnc(-c2ccccc2)s1)c1cn([C@@H]2CO[C@H]3[C@@H]2OC[C@H]3O)nn1", "note": "[Example 30, 1-((3R,3aR,6R,6aR)-6-hydroxyhexahydrofuro[3,2-b]furan-3-yl)-N-((5-phenyl-1,3,4-thiadiazol-2-yl)methyl)-1H-1,2,3-triazole-4-carboxamide]", "EC50": 130}
{"smiles": "CC1(Cn2cc(C(=O)NCc3nnc(-c4ccccc4)s3)nn2)COC1", "note": "[Example 161, 1-((3-methyloxetan-3-yl)methyl)-N-((5-phenyl-1,3,4-thiadiazol-2-yl)methyl)-1H-1,2,3-triazole-4-carboxamide]", "EC50": 22}
{"smiles": "N#CCCn1cc(C(=O)NCc2nnc(-c3ccccc3)s2)nn1", "note": "[Example 71, 1-(2-cyanoethyl)-N-((5-phenyl-1,3,4-thiadiazol-2-yl)methyl)-1H-1,2,3-triazole-4-carboxamide]", "EC50": 11}
{"smiles": "CNC(=O)Cn1cc(C(=O)NCc2nnc(-c3ccccc3)s2)nn1", "note": "[Example 81, 1-(2-(methylamino)-2-oxoethyl)-N-((5-phenyl-1,3,4-thiadiazol-2-yl)methyl)-1H-1,2,3-triazole-4-carboxamide]", "EC50": 6}
{"smiles": "CC(C#N)n1cc(C(=O)NCc2cc(-c3ccncc3)no2)nn1", "note": "(single isomer, unassigned) [Example 286, 1-(1-cyanoethyl)-N-((3-(pyridin-4-yl)isoxazol-5-yl)methyl)-1H-1,2,3-triazole-4-carboxamide]", "EC50": 72}
{"smiles": "Cc1cccn2cc(C(=O)NCc3nnc(-c4ccccc4)s3)nc12", "note": "[Example 13, 8-methyl-N-((5-phenyl-1,3,4-thiadiazol-2-yl)methyl)imidazo[1,2-a]pyridine-2-carboxamide]", "EC50": 341}
{"smiles": "Cc1nc(OC(F)F)ccc1-n1cc(C(=O)NCc2nnc(-c3ccccc3)s2)nn1", "note": "[Example 301, 1-(6-(difluoromethoxy)-2-methylpyridin-3-yl)-N-((5-phenyl-1,3,4-thiadiazol-2-yl)methyl)-1H-1,2,3-triazole-4-carboxamide]", "EC50": 8}
{"smiles": "COc1ccc(-n2cc(C(=O)NCc3nnc(-c4ccccc4)s3)nn2)cn1", "note": "[Example 236, 1-(6-methoxypyridin-3-yl)-N-((5-phenyl-1,3,4-thiadiazol-2-yl)methyl)-1H-1,2,3-triazole-4-carboxamide]", "EC50": 12}
{"smiles": "CC(C)(C(N)=O)n1cc(C(=O)NCc2nnc(-c3ccccc3)s2)nn1", "note": "[Example 312, 1-(1-amino-2-methyl-1-oxopropan-2-yl)-N-((5-phenyl-1,3,4-thiadiazol-2-yl)methyl)-1H-1,2,3-triazole-4-carboxamide]", "EC50": 12}
{"smiles": "CNC(=O)C(C)(C)n1cc(C(=O)NCc2nnc(-c3ccccc3)s2)nn1", "note": "[Example 322, 1-(2-methyl-1-(methylamino)-1-oxopropan-2-yl)-N-((5-phenyl-1,3,4-thiadiazol-2-yl)methyl)-1H-1,2,3-triazole-4-carboxamide]", "EC50": 26}
{"smiles": "CCn1ccc(C(=O)NCc2nnc(-c3ccccc3)s2)n1", "note": "[Example 52, 1-ethyl-N-[(5-phenyl-1,3,4-thiadiazol-2-yl)methyl]pyrazole-3-carboxamide]", "EC50": 128}
{"smiles": "O=C(NCc1nnc(-c2ccccc2)s1)c1cn(CC2COC2)nn1", "note": "[Example 157, 1-(oxetan-3-ylmethyl)-N-((5-phenyl-1,3,4-thiadiazol-2-yl)methyl)-1H-1,2,3-triazole-4-carboxamide]", "EC50": 11}
{"smiles": "COc1ccc(-n2cc(C(=O)NCc3nnc(-c4ccccc4)s3)nn2)c(C)n1", "note": "[Example 229, 1-(6-methoxy-2-methylpyridin-3-yl)-N-((5-phenyl-1,3,4-thiadiazol-2-yl)methyl)-1H-1,2,3-triazole-4-carboxamide]", "EC50": 8}
{"smiles": "O=C(NCc1nnc(-c2ccccc2)s1)c1cn(CCC(F)F)nn1", "note": "[Example 171, 1-(3,3-difluoropropyl)-N-((5-phenyl-1,3,4-thiadiazol-2-yl)methyl)-1H-1,2,3-triazole-4-carboxamide]", "EC50": 10}
{"smiles": "O=C(NCc1nnc(-c2ccccc2)s1)c1cn(-c2cccnc2)nn1", "note": "[Example 242, N-((5-phenyl-1,3,4-thiadiazol-2-yl)methyl)-1-(pyridin-3-yl)-1H-1,2,3-triazole-4-carboxamide]", "EC50": 705}
{"smiles": "Cc1ccc(-n2cc(C(=O)NCc3nnc(-c4ccccc4Cl)s3)nn2)c(C)n1", "note": "[Example 112, N-((5-(2-chlorophenyl)-1,3,4-thiadiazol-2-yl)methyl)-1-(2,6-dimethylpyridin-3-yl)-1H-1,2,3-triazole-4-carboxamide]", "EC50": 82}
{"smiles": "O=C(NCc1nnc(-c2ccccc2)s1)c1cn(CC(F)(F)F)nn1", "note": "[Example 60, N-((5-phenyl-1,3,4-thiadiazol-2-yl)methyl)-1-(2,2,2-trifluoroethyl)-1H-1,2,3-triazole-4-carboxamide]", "EC50": 4}
{"smiles": "Cc1ccc(-n2cc(C(=O)NCc3nnc(-c4cn[nH]c4)s3)nn2)c(C)n1", "note": "[Example 300, N-((5-(1H-pyrazol-4-yl)-1,3,4-thiadiazol-2-yl)methyl)-1-(2,6-dimethylpyridin-3-yl)-1H-1,2,3-triazole-4-carboxamide]", "EC50": 22}
{"smiles": "O=C(NCc1nnc(-c2ccccc2)s1)c1cn(C2CCC2)nn1", "note": "[Example 68, 1-cyclobutyl-N-((5-phenyl-1,3,4-thiadiazol-2-yl)methyl)-1H-1,2,3-triazole-4-carboxamide]", "EC50": 17}
{"smiles": "O=C(NCc1cc(-c2ccncc2)no1)c1cn(C2CC2)nn1", "note": "[Example 284, 1-cyclopropyl-N-((3-(pyridin-4-yl)isoxazol-5-yl)methyl)-1H-1,2,3-triazole-4-carboxamide]", "EC50": 74}
{"smiles": "CC(C#N)n1cc(C(=O)NCc2nnc(-c3ccccc3)s2)nn1", "note": "(stereo not shown) [Example 73, 1-(1-cyanoethyl)-N-((5-phenyl-1,3,4-thiadiazol-2-yl)methyl)-1H-1,2,3-triazole-4-carboxamide]", "EC50": 9}
{"smiles": "Cc1ccc(-n2cc(C(=O)NCc3nnc(-c4ccccc4)s3)nn2)c(Cl)n1", "note": "[Example 278, 1-(2-chloro-6-methylpyridin-3-yl)-N-((5-phenyl-1,3,4-thiadiazol-2-yl)methyl)-1H-1,2,3-triazole-4-carboxamide]", "EC50": 15}
{"smiles": "C[C@@H]1C[C@H]1n1cc(C(=O)NCc2nnc(-c3ccccc3)s2)nn1", "note": "[Example 134, 1-((1R,2R)-2-methylcyclopropyl)-N-((5-phenyl-1,3,4-thiadiazol-2-yl)methyl)-1H-1,2,3-triazole-4-carboxamide]", "EC50": 166}
{"smiles": "O=C(NCc1nnc(-c2ccccc2)s1)c1cn(CC2CCC2)nn1", "note": "[Example 77, 1-(cyclobutylmethyl)-N-((5-phenyl-1,3,4-thiadiazol-2-yl)methyl)-1H-1,2,3-triazole-4-carboxamide]", "EC50": 12}
{"smiles": "CC[C@@H](c1ccc(F)cc1)n1cc(C(=O)NCc2nnc(-c3ccccc3)s2)nn1", "note": "[Example 257, (S)-1-(1-(4-fluorophenyl)propyl)-N-((5-phenyl-1,3,4-thiadiazol-2-yl)methyl)-1H-1,2,3-triazole-4-carboxamide]", "EC50": 19}
{"smiles": "CC(C)(C(N)=O)n1cc(C(=O)NCc2cc(-c3ccccc3)on2)nn1", "note": "[Example 271, 1-(1-amino-2-methyl-1-oxopropan-2-yl)-N-((5-phenylisoxazol-3-yl)methyl)-1H-1,2,3-triazole-4-carboxamide]", "EC50": 27}
